Reference: patent publication US8796466B2, “Hepatitis C virus inhibitors” (Bristol-Myers Squibb Company, priority 2009, dated 2014)
Like-named read-outs stand apart in the source and are kept apart here.

System: HCV 1b genotype
Assay: HCV Replicon assay (HCV 1b genotype)
Format: cell-based, Hepatitis C virus
Conditions: Hepatitis C virus, HCV 1b genotype replicon
Description: An HCV Replicon assay was utilized in the present disclosure, and was prepared, conducted and validated as described in commonly owned PCT/US2006/022197 and in O'Boyle et. al. Antimicrob Agents Chemother. 2005 April; 49(4):1346-53. Assay methods incorporating luciferase reporters have also been used as described (Apath.com).
HCV-neo replicon cells and replicon cells containing mutations in the NS5A region were used to test the currently described family of compounds. The compounds were determined to have more than 10-fold less inhibitory activity on cells containing mutations than wild-type cells. Thus, the compounds of the present disclosure can be effective in inhibiting the function of the HCV NS5A protein and are understood to be as effective in combinations as previously described in application PCT/US2006/022197 and commonly owned WO/04014852. Further, the compounds of the present disclosure can be effective against the HCV 1b genotype. It should also be understood that the compounds of the present disclosure can inhibit multiple genotypes of HCV. […] In one embodiment, compounds of the present disclosure are inhibitory versus 1a, 1b, 2a, 2b, 3a, 4a, and 5a genotypes.

[1] = class symbol, read-out: Range (EC50 values against HCV 1b)

Row | SMILES | EC50 [1] | EC50 (Effective 50% inhibitory concentration, read-out: 1b EC50)
1 | COC(=O)N[C@H](C(=O)N1CCC[C@H]1c1ncc(-c2ccc(C#Cc3ccc4c(ccc5nc([C@@H]6CCCN6C(=O)[C@@H](NC(=O)OC)C(C)C)[nH]c54)c3)cc2)[nH]1)C(C)C [Example D-6, methyl ((1S)-1-(((2S)-2-(4-(4-((2-((2S)-1-((2S)-2-((methoxycarbonyl)amino)-3-methylbutanoyl)-2-pyrrolidinyl)-1H-naphtho[1,2-d]imidazol-7-yl)ethynyl)phenyl)-1H-imidazol-2-yl)-1-pyrrolidinyl)carbonyl)-2-methylpropyl)carbamate] | 0.002 to 0.099 nM | 
2 | COC(=O)N[C@H](C(=O)N1C[C@@H](C)C[C@H]1c1ncc(-c2ccc([C@H]3C[C@@H]3c3ccc(-c4cnc([C@@H]5C[C@H](C)CN5C(=O)[C@@H](NC(=O)OC)C(C)C)[nH]4)cc3)cc2)[nH]1)C(C)C [Example M9.7, methyl ((1S)-1-(((2S,4S)-2-(4-(4-((1S,2S)-2-(4-(2-((2S,4S)-1-((2S)-2-((methoxycarbonyl)amino)-3-methylbutanoyl)-4-methyl-2-pyrrolidinyl)-1H-imidazol-4-yl)phenyl)cyclopropyl)phenyl)-1H-imidazol-2-yl)-4-methyl-1-pyrrolidinyl)carbonyl)-2-methylpropyl)carbamate] | 0.002 to 0.099 nM | 
3 | O=C(NC1CCCC1)N[C@@H](C(=O)N1CCC[C@H]1c1nc(-c2ccc(COCc3ccc(-c4cnc([C@@H]5CCCN5C(=O)[C@H](NC(=O)NC5CCCC5)c5ccccc5)[nH]4)cc3)cc2)c[nH]1)c1ccccc1 [OL-19, 1-cyclopentyl-3-((1R)-2-((2S)-2-(4-(4-(((4-(2-((2S)-1-((2R)-2-((cyclopentylcarbamoyl)amino)-2-phenylacetyl)-2-pyrrolidinyl)-1H-imidazol-5-yl)benzyl)oxy)methyl)phenyl)-1H-imidazol-2-yl)-1-pyrrolidinyl)-2-oxo-1-phenylethyl)urea] | 1 to 9.9 nM | 
4 | COC(=O)N[C@H](C(=O)N1CCC[C@H]1c1nc(-c2ccc(C#Cc3ccc(-c4c[nH]c([C@@H]5CCCN5C(=O)[C@@H](NC(=O)OC)C5CCOCC5)n4)cc3)cc2)c[nH]1)C1CCOCC1 [Example M2.1, dimethyl (1,2-ethynediylbis(4,1-phenylene-1H-imidazole-4,2-diyl(2S)-2,1-pyrrolidinediyl((1S)-2-oxo-1-(tetrahydro-2H-pyran-4-yl)-2,1-ethanediyl)))biscarbamate] | 0.002 to 0.099 nM | 
5 | CCNC(=O)N[C@@H](C(=O)N1CCC[C@H]1c1nc(-c2ccc(CCc3ccc(-c4c[nH]c([C@@H]5CCCN5C(=O)[C@H](NC(=O)NCC)c5ccccc5)n4)cc3)cc2)c[nH]1)c1ccccc1 [OL-12, N′,N′″-(1,2-ethanediylbis(4,1-phenylene-1H-imidazole-4,2-diyl(2S)-2,1-pyrrolidinediyl((1R)-2-oxo-1-phenyl-2,1-ethanediyl)))bis(1-ethylurea)] | 0.002 to 0.099 nM | 
6 | COC(=O)N[C@H](C(=O)N1[C@@H]2C[C@@H]2C[C@H]1c1nc(Cl)c(-c2ccc(C#Cc3ccc(-c4[nH]c([C@@H]5C[C@H]6C[C@H]6N5C(=O)[C@@H](NC(=O)OC)C(C)C)nc4Cl)cc3)cc2)[nH]1)C(C)C [Example M9, methyl ((1S)-1-(((1R,3S,5R)-3-(4-chloro-5-(4-((4-(4-chloro-2-((1R,3S,5R)-2-((2S)-2-((methoxycarbonyl)amino)-3-methylbutanoyl)-2-azabicyclo[3.1.0]hex-3-yl)-1H-imidazol-5-yl)phenyl)ethynyl)phenyl)-1H-imidazol-2-yl)-2-azabicyclo[3.1.0]hex-2-yl)carbonyl)-2-methylpropyl)carbamate] | 0.002 to 0.099 nM | 
7 | COC(=O)N[C@@H](C(=O)N1CCC[C@H]1c1ncc(-c2ccc(C#Cc3ccc4c(c3)CCc3nc([C@@H]5CCCN5C(=O)[C@H](NC(=O)OC)c5ccccc5)[nH]c3-4)cc2)[nH]1)c1ccccc1 [Example D-4, methyl ((1R)-2-((2S)-2-(4-(4-((2-((2S)-1-((2R)-2-((methoxycarbonyl)amino)-2-phenylacetyl)-2-pyrrolidinyl)-4,5-dihydro-1H-naphtho[1,2-d]imidazol-7-yl)ethynyl)phenyl)-1H-imidazol-2-yl)-1-pyrrolidinyl)-2-oxo-1-phenylethyl)carbamate] | 0.002 to 0.099 nM | 
8 | COC(=O)N[C@H](C(=O)N1CC(F)(F)C[C@H]1c1ncc(-c2ccc(C#Cc3ccc(-c4cnc([C@@H]5CC(F)(F)CN5C(=O)[C@@H](NC(=O)OC)C5CCOCC5)[nH]4)cc3)cc2)[nH]1)C1CCOCC1 [Example N2, dimethyl (ethyne-1,2-diylbis(4,1-phenylene-1H-imidazole-5,2-diyl((2S)-4,4-difluoropyrrolidine-2,1-diyl)((1S)-2-oxo-1-(tetrahydro-2H-pyran-4-yl)ethane-2,1-diyl)))biscarbamate] | 0.002 to 0.099 nM | 
9 | COC(=O)N[C@@H](C(=O)N1CCC[C@H]1c1ncc(-c2ccc(C#Cc3ccc4c(ccc5nc([C@@H]6CCCN6C(=O)[C@H](NC(=O)OC)c6ccccc6)[nH]c54)c3)cc2)[nH]1)c1ccccc1 [Example D-5, methyl ((1R)-2-((2S)-2-(7-((4-(2-((2S)-1-((2R)-2-((methoxycarbonyl)amino)-2-phenylacetyl)-2-pyrrolidinyl)-1H-imidazol-4-yl)phenyl)ethynyl)-1H-naphtho[1,2-d]imidazol-2-yl)-1-pyrrolidinyl)-2-oxo-1-phenylethyl)carbamate] | 0.002 to 0.099 nM | 
10 | CNC(=O)N[C@@H](C(=O)N1CCC[C@H]1c1nc(-c2ccc(COCc3ccc(-c4cnc([C@@H]5CCCN5C(=O)[C@H](NC(=O)NC)c5ccccc5)[nH]4)cc3)cc2)c[nH]1)c1ccccc1 [OL-17, 1-methyl-3-((1R)-2-((2S)-2-(4-(4-(((4-(2-((2S)-1-((2R)-2-((methylcarbamoyl)amino)-2-phenylacetyl)-2-pyrrolidinyl)-1H-imidazol-5-yl)benzyl)oxy)methyl)phenyl)-1H-imidazol-2-yl)-1-pyrrolidinyl)-2-oxo-1-phenylethyl)urea] | 0.002 to 0.099 nM | 
11 | COC(=O)N[C@H](C(=O)N1[C@@H]2C[C@@H]2C[C@H]1c1nc2ccc3cc(C#Cc4ccc5c(ccc6nc([C@@H]7C[C@H]8C[C@H]8N7C(=O)[C@@H](NC(=O)OC)C7CCOCC7)[nH]c65)c4)ccc3c2[nH]1)C(C)C [Example D-11, methyl ((1S)-2-((1R,3S,5R)-3-(7-((2-((1R,3S,5R)-2-((2S)-2-((methoxycarbonyl)amino)-3-methylbutanoyl)-2-azabicyclo[3.1.0]hex-3-yl)-1H-naphtho[1,2-d]imidazol-7-yl)ethynyl)-1H-naphtho[1,2-d]imidazol-2-yl)-2-azabicyclo[3.1.0]hex-2-yl)-2-oxo-1-(tetrahydro-2H-pyran-4-yl)ethyl)carbamate] | 0.002 to 0.099 nM | 
12 | CN(C)[C@@H](C(=O)N1CCC[C@H]1c1nc(-c2ccc(-c3ccc(-c4ccc(-c5c[nH]c([C@@H]6CCCN6C(=O)[C@@H](c6ccccc6)N(C)C)n5)cc4)cc3)cc2)c[nH]1)c1ccccc1 [Example D-2, (1R)-2-((2S)-2-(4-(4″-(2-((2S)-1-((2R)-2-(dimethylamino)-2-phenylacetyl)-2-pyrrolidinyl)-1H-imidazol-5-yl)-1,1′:4′,1″-terphenyl-4-yl)-1H-imidazol-2-yl)-1-pyrrolidinyl)-N,N-dimethyl-2-oxo-1-phenylethanamine] | 0.1 to 0.99 nM | 
13 | COC(=O)N[C@@H](C(=O)N1[C@@H]2C[C@@H]2C[C@H]1c1ncc(-c2ccc(C#Cc3ccc4c(ccc5nc([C@@H]6C[C@H]7C[C@H]7N6C(=O)[C@H](NC(=O)OC)c6ccccc6)[nH]c54)c3)cc2)[nH]1)c1ccccc1 [Example D-8, methyl ((1R)-2-((1R,3S,5R)-3-(7-((4-(2-((1R,3S,5R)-2-((2R)-2-((methoxycarbonyl)amino)-2-phenylacetyl)-2-azabicyclo[3.1.0]hex-3-yl)-1H-imidazol-4-yl)phenyl)ethynyl)-1H-naphtho[1,2-d]imidazol-2-yl)-2-azabicyclo[3.1.0]hex-2-yl)-2-oxo-1-phenylethyl)carbamate] | 0.002 to 0.099 nM | 0.005 nM
14 | COC(=O)N[C@H](C(=O)N1[C@H]2C[C@@]2(C)C[C@H]1c1ncc(-c2ccc(C#Cc3ccc(-c4cnc([C@@H]5C[C@]6(C)C[C@@H]6N5C(=O)[C@@H](NC(=O)OC)C(C)C)[nH]4)cc3)cc2)[nH]1)C(C)C [Example M12.9, methyl ((1S)-1-(((1S,3S,5S)-3-(4-(4-((4-(2-((1S,3S,5S)-2-((2S)-2-((methoxycarbonyl)amino)-3-methylbutanoyl)-5-methyl-2-azabicyclo[3.1.0]hex-3-yl)-1H-imidazol-4-yl)phenyl)ethynyl)phenyl)-1H-imidazol-2-yl)-5-methyl-2-azabicyclo[3.1.0]hex-2-yl)carbonyl)-2-methylpropyl)carbamate] | 0.002 to 0.099 nM | 
15 | COC(=O)N[C@H](C(=O)N1[C@@H]2C[C@@H]2C[C@H]1c1ncc(-c2ccc([C@H]3C[C@@H]3c3ccc(-c4cnc([C@@H]5C[C@H]6C[C@H]6N5C(=O)[C@@H](NC(=O)OC)C5CCOCC5)[nH]4)cc3)cc2)[nH]1)C1CCOCC1 [Example M9.4, dimethyl ((1S,2S)-1,2-cyclopropanediylbis(4,1-phenylene-1H-imidazole-4,2-diyl(1R,3S,5R)-2-azabicyclo[3.1.0]hexane-3,2-diyl((1S)-2-oxo-1-(tetrahydro-2H-pyran-4-yl)-2,1-ethanediyl)))biscarbamate] | 0.002 to 0.099 nM | 
